Data as given in ChEMBL document CHEMBL5034038, “Zanamivir-Cholesterol Conjugate: A Long-Acting Neuraminidase Inhibitor with Potent Efficacy against Drug-Resistant Influenza Viruses” (J Med Chem, 2021).
Calls of active or inactive are those of the source. No cut-off for these calls is given here.

Columns and labels:
[1] = Inhibition of Influenza A virus (A/California/07/2009 (H1N1)) neuraminidase N1 H275Y mutant using MUNANA as substrate preincubated for 30 mins followed by substrate addition by fluorescence method
[2] = Inhibition of Influenza A virus (A/Moscow/10/99 (H3N2)) neuraminidase N2 E119V variant using MUNANA as substrate preincubated for 30 mins followed by substrate addition by fluorescence method
Influenza A virus [3] = assay: Antiviral activity against Influenza A virus (A/Moscow/10/99 (H3N2)) harboring NA E119V mutant infected in dog MDCK cells assessed as reduction in virus replication incubated for 72 hrs by CCK8 assay; type: functional, organism-based
Influenza A virus [4] = assay: Antiviral activity against Influenza A virus (A/California/07/2009 (H1NI)) harboring NA H275Y mutant infected in dog MDCK cells assessed as reduction in virus replication incubated for 72 hrs by CCK8 assay; type: functional, organism-based, A/California/07/2009(H1N1)
Influenza A virus [5] = assay: Protection against Influenza A virus (A/California/07/2009 (H1NI)) harboring NA H275Y mutant infected in Balb/c mouse at 4.2 to 8.4 uM/kg, IV administered once daily for 7 days starting from 24 hrs prior to viral infection; type: functional, A/California/07/2009(H1N1); details: dose 4.2-8.4 µM/Kg
Influenza A virus [6] = assay: Protection against Influenza A virus (A/California/07/2009 (H1NI)) harboring NA H275Y mutant infected in Balb/c mouse at 8.4 uM/kg, IV administered once daily for 7 days starting from 24 hrs post to viral infection; type: functional, A/Puerto Rico/8/1934(H1N1)

Row | Structure (SMILES) | IC50 [1] | IC50 [2] | EC50 (Influenza A virus [3]; read-out: EC50) | EC50 (Influenza A virus [4]) | EC50 (Influenza A virus [3]) | Activity (Influenza A virus [5]; time 7 day, at 4.2 to 8.4 µmol/kg) | Activity (Influenza A virus [6]; time 7 day, at 8.4 µmol/kg) | Activity (Influenza A virus [5]; A/California/07/2009(H1N1), time 7.0 day) | Activity (Influenza A virus [6]; A/Puerto Rico/8/1934(H1N1), time 7.0 day)
1 | CC(=O)N[C@H]1[C@H]([C@H](OC(=O)NCCOCCOCCOCCOCCOCCOCCOCCOCCOCCOCCOCCOCc2cn(CCCCCCO[C@H]3CC[C@@]4(C)C(=CC[C@H]5[C@@H]6CC[C@H]([C@H](C)CCCC(C)C)[C@@]6(C)CC[C@@H]54)C3)nn2)[C@H](O)CO)OC(C(=O)O)=C[C@@H]1NC(=N)N | 573 nM | 8580 nM | 8260 nM | 2600 nM |  |  |  |  | 
2 | CCCCCCn1cc(COCCOCCOCCOCCOCCOCCNC(=O)O[C@@H]([C@@H]2OC(C(=O)O)=C[C@H](NC(=N)N)[C@H]2NC(C)=O)[C@H](O)CO)nn1 | 30.3 nM | 296 nM | 4730 nM | 612 nM |  |  |  |  | 
3 | CC(=O)N[C@H]1[C@H]([C@H](O)[C@H](O)CO)OC(C(=O)O)=C[C@@H]1NC(=N)N [ZANAMIVIR] | 1 nM | 10 nM |  | 26.6 nM | 5240 nM |  |  |  | 
4 | CC(=O)N[C@H]1[C@H]([C@H](OC(=O)NCCOCCOCCOCCOCCOCCOCc2cn(CCCCCCO[C@H]3CC[C@@]4(C)C(=CC[C@H]5[C@@H]6CC[C@H]([C@H](C)CCCC(C)C)[C@@]6(C)CC[C@@H]54)C3)nn2)[C@H](O)CO)OC(C(=O)O)=C[C@@H]1NC(=N)N | 22 nM | 162 nM | 422 nM | 22 nM |  | 100% | 100% |  | 
5 | CC(=O)N[C@H]1[C@H]([C@H](OC(=O)NCCOCCOCCOCc2cn(CCCCCCO[C@H]3CC[C@@]4(C)C(=CC[C@H]5[C@@H]6CC[C@H]([C@H](C)CCCC(C)C)[C@@]6(C)CC[C@@H]54)C3)nn2)[C@H](O)CO)OC(C(=O)O)=C[C@@H]1NC(=N)N | 127 nM | 773 nM | 4810 nM | 653 nM |  |  |  |  | 
6 | CCC(CC)O[C@@H]1C=C(C(=O)O)C[C@H](N)[C@H]1NC(C)=O [OSELTAMIVIR CARBOXYLATE] | 938 nM | 22.4 nM | 30200 nM | 2610 nM |  |  |  | inactive | inactive
